According to paper PMC7031696 (Cell chemical biology, 2019):
Read-outs that look alike come from different tables or passages of the source.

Key:
[1] = test system: Plasmodium falciparum 3D7-A10 parasites; experiment: Stage specificity assay (8-h exposure of synchronized stages, IC50^8h); assay type: cell-based; conditions: for IC50: Plasmodium falciparum
[2] = test system: asynchronous 3D7-A10 parasite cultures; experiment: Standard 72-h exposure asexual blood stage susceptibility assay (IC50^72h); assay type: cell-based, Plasmodium falciparum; conditions: Plasmodium falciparum, 3D7, 72 h, read-out: Overall (72hr assay) Mean IC50 (IC50^72h)
[3] = test system: 3D7-MR4 trophozoite parasite-infected RBCs; experiment: Metabolomic profiling (hydrophilic metabolite changes, UHPLC-MS); assay type: cell-based, Plasmodium falciparum
[4] = test system: 3D7-A10 or Dd2-B2 parasites; experiment: Resistance selections (single step, pulsing or ramping); assay type: cell-based, Plasmodium falciparum
[5] = 10 × IC50^72h, 2.5 hr, trophozoites

With CCCOCc1cc(CN2CCN(c3cccc(Cl)c3)CC2)c(O)c2ncccc12 [MMV000787] the “Ratio lowest IC50 8hr/IC50 72hr” value ([1]; 3D7-A10) was 0.7, the “killing in stage specificity assay” value ([1]; 8-h exposures, survival curves) was “incomplete killing” and the IC50 ([1]; 3D7, 8 h, read-out: IC50^8h values at all tested stages, 8-h exposures, all asexual blood stages) was over 1 µM. It also gave an IC50 ([1]; 3D7, read-out: Early rings Mean IC50 (IC50^8h), 8-h exposure 0–8 hr, 3D7-A10, survival at 60 h) of 5.74 µM, an IC50 ([1]; 3D7, read-out: Early trophozoites Mean IC50 (IC50^8h), 8-h exposure 16–24 hr, 3D7-A10, survival at 60 h) of 3.31 µM and an IC50 ([1]; 3D7, read-out: Late rings Mean IC50 (IC50^8h), 8-h exposure 8–16 hr, 3D7-A10, survival at 60 h) of 7.87 µM. For the same molecule, the IC50 ([1]; 3D7, read-out: Late trophozoites Mean IC50 (IC50^8h), 8-h exposure 24–32 hr, 3D7-A10, survival at 60 h) was 1.35 µM, the IC50 ([1]; 3D7, read-out: Schizonts Mean IC50 (IC50^8h), 8-h exposure 32–40 hr, 3D7-A10, survival at 60 h) was 5.91 µM and the “Stage of peak activity (Figure 6)” value ([1]; period when the parasite was most susceptible (lowest IC50^8h)) was “late trophozoites”. The “Peak Activity (Table S1)” value ([1]; stage(s) with the lowest IC50^8h) was “Late Trophs”, the IC50 [2] was 1960 nM and the “metabolic signature: increases in the pyrimidine precursors dihydroorotate and N-carbamoyl-L-aspartate (mETC disruption)” value [3, 5] was “observed”. For the same molecule, the “orotidine 5-P levels” value [3, 5] was “decreased”, the “Log2(fold changes) 3-phosphoglycerate” value ([3]; metabolite 3-phosphoglycerate, log2 fold change) was -0.5371 and the “Log2(fold changes) 4-Pyridoxic acid” value ([3]; metabolite 4-Pyridoxic acid, log2 fold change) was -0.4654. The “Log2(fold changes) 4-aminobutyrate” value ([3]; metabolite 4-aminobutyrate, log2 fold change) was 0.0414, the “Log2(fold changes) 4-phosphopantetheine” value ([3]; metabolite 4-phosphopantetheine, log2 fold change) was 0.0000 and the “Log2(fold changes) 4-phosphopantothenate” value ([3]; metabolite 4-phosphopantothenate, log2 fold change) was -0.5845. For the same molecule, the “Log2(fold changes) 5-aminopentanoic acid” value ([3]; metabolite 5-aminopentanoic acid, log2 fold change) was 0.0000, the “Log2(fold changes) 5-methyl-THF” value ([3]; metabolite 5-methyl-THF, log2 fold change) was 0.0000 and the “Log2(fold changes) 5-phosphoribosyl-1-pyrophosphate” value ([3]; metabolite 5-phosphoribosyl-1-pyrophosphate, log2 fold change) was 0.0000. The “Log2(fold changes) 6-phospho-D-gluconate” value ([3]; metabolite 6-phospho-D-gluconate, log2 fold change) was -0.3590, the “Log2(fold change) HVDD” value ([3]; metabolite HVDD) was -0.3092 and the “Log2(fold change) Hydroxyisocaproic acid” value ([3]; metabolite Hydroxyisocaproic acid) was 0.0000. For the same molecule, the “Log2(fold change) IDP” value ([3]; metabolite IDP) was 0.0000, the “Log2(fold change) IMP” value ([3]; metabolite IMP) was -0.1140 and the “Log2(fold change) Inositol” value ([3]; metabolite Inositol) was 0.0000. The “Log2(fold change) Isopentyl-PP” value ([3]; metabolite Isopentyl-PP) was -1.2940, the “Log2(fold change) L-arginino-succinate” value ([3]; metabolite L-arginino-succinate) was 0.4157 and the “Log2(fold change) LD” value ([3]; metabolite LD) was 0.2463. The “Log2(fold change) Myristoyl/tetradecanoyl-CoA” value ([3]; metabolite Myristoyl/tetradecanoyl-CoA) was 0.0000, the “Log2(fold change) N-Acetyl-L-alanine” value ([3]; metabolite N-Acetyl-L-alanine) was -0.3215 and the “Log2(fold change) N-acetyl-L-ornithine” value ([3]; metabolite N-acetyl-L-ornithine) was -0.0825. The “Log2(fold change) N-acetyl-glucosamine-1/6-phosphate” value ([3]; metabolite N-acetyl-glucosamine-1/6-phosphate) was -0.1305, the “Log2(fold change) N-acetyl-glutamate” value ([3]; metabolite N-acetyl-glutamate) was -0.2597 and the “Log2(fold change) N-acetyl-glutamine” value ([3]; metabolite N-acetyl-glutamine) was -0.3137. For the same molecule, the “Log2(fold change) N-carbamoyl-L-aspartate” value ([3]; metabolite N-carbamoyl-L-aspartate) was 1.8530, the “Log2(fold change) NAD+” value ([3]; metabolite NAD+) was -0.4850 and the “Log2(fold change) NADH” value ([3]; metabolite NADH) was 0.6916. The “Log2(fold change) NADP+” value ([3]; metabolite NADP+) was -0.1054, the “Log2(fold change) NADPH” value ([3]; metabolite NADPH) was 0.8357 and the “Log2(fold change) O-acetyl-L-serine” value ([3]; metabolite O-acetyl-L-serine) was 0.0023. The “Log2(fold change) Octoluse 8/1P” value ([3]; metabolite Octoluse 8/1P) was -0.4530, the “Log2(fold change) Octoluse Bisphosphate” value ([3]; metabolite Octoluse Bisphosphate) was -0.4981 and the “Log2(fold change) PD” value ([3]; metabolite PD) was 0.8974. For the same molecule, the “Log2(fold change) PE” value ([3]; metabolite PE) was 0.4326, the “Log2(fold change) PEE” value ([3]; metabolite PEE) was -0.3726 and the “Log2(fold change) PEEK” value ([3]; metabolite PEEK) was 0.6684. The “Log2(fold change) PVNF” value ([3]; metabolite PVNF) was -0.7950, the “Log2(fold change) Pyroglutamic acid” value ([3]; metabolite Pyroglutamic acid) was -0.5088 and the “Log2(fold change) Pyrophosphate” value ([3]; metabolite Pyrophosphate) was 0.0000. The “Log2(fold change) Ribose-5-phosphate” value ([3]; metabolite Ribose-5-phosphate) was -0.4878, the “Log2(fold change) S-adenosyl-L-homocysteine” value ([3]; metabolite S-adenosyl-L-homocysteine) was -0.1665 and the “Log2(fold change) S-adenosyl-L-methioninamine” value ([3]; metabolite S-adenosyl-L-methioninamine) was 1.4172. The “Log2(fold change) S-adenosyl-L-methionine” value ([3]; metabolite S-adenosyl-L-methionine) was 0.0000, the “Log2(fold change) S-methyl-5'-thioadenosine” value ([3]; metabolite S-methyl-5'-thioadenosine) was 0.1323 and the “Log2(fold change) SD” value ([3]; metabolite SD) was 0.5833. The “Log2(fold change) SDL” value ([3]; metabolite SDL) was 0.0000, the “Log2(fold change) SID” value ([3]; metabolite SID) was 0.2266 and the “Log2(fold change) Sedoheptulose bisphosphate” value ([3]; metabolite Sedoheptulose bisphosphate) was -0.5430. For the same molecule, the “Log2(fold change) Thiamine pyrophosphate” value ([3]; metabolite Thiamine pyrophosphate) was -0.2018, the “Log2(fold changes) UDP-D-glucose” value ([3]; metabolite UDP-D-glucose, log2 fold change) was -0.1946 and the “Log2(fold changes) UDP-D-glucuronate” value ([3]; metabolite UDP-D-glucuronate, log2 fold change) was -0.2169. For the same molecule, the “Log2(fold changes) UDP-N-acetyl-glucosamine” value ([3]; metabolite UDP-N-acetyl-glucosamine, log2 fold change) was -0.3874, the “Log2(fold changes) UDP” value ([3]; metabolite UDP, log2 fold change) was -0.9589 and the “Log2(fold changes) UMP” value ([3]; metabolite UMP, log2 fold change) was -0.1735. For the same molecule, the “Log2(fold changes) UTP” value ([3]; metabolite UTP, log2 fold change) was 0.0000, the “Log2(fold change) hydroxyphenylpyruvate” value ([3]; metabolite hydroxyphenylpyruvate) was 0.0000 and the “Log2(fold change) hydroxyproline/Aminolevulinate” value ([3]; metabolite hydroxyproline/Aminolevulinate) was -0.3494. For the same molecule, the “Log2(fold change) hypoxanthine” value ([3]; metabolite hypoxanthine) was -0.2301, the “Log2(fold change) indole” value ([3]; metabolite indole) was 0.0000 and the “Log2(fold change) inosine” value ([3]; metabolite inosine) was -0.0358. For the same molecule, the “Log2(fold change) isoleucine” value ([3]; metabolite isoleucine) was 0.0000, the “Log2(fold change) lactate” value ([3]; metabolite lactate) was -0.6338 and the “Log2(fold change) leucine” value ([3]; metabolite leucine) was 0.0000. The “Log2(fold change) lysine” value ([3]; metabolite lysine) was -0.1255, the “Log2(fold change) malate” value ([3]; metabolite malate) was 0.0012 and the “Log2(fold change) maleic acid” value ([3]; metabolite maleic acid) was 0.0284. For the same molecule, the “Log2(fold change) methionine” value ([3]; metabolite methionine) was -0.0998, the “Log2(fold change) myo-inositol” value ([3]; metabolite myo-inositol) was -0.7776 and the “Log2(fold change) nicotinamide mononucleotide” value ([3]; metabolite nicotinamide mononucleotide) was -0.2457. The “Log2(fold change) nicotinate” value ([3]; metabolite nicotinate) was -0.3114, the “Log2(fold change) ornithine” value ([3]; metabolite ornithine) was 0.0122 and the “Log2(fold change) orotate” value ([3]; metabolite orotate) was 0.0632. For the same molecule, the “Log2(fold change) orotidine-5'-phosphate” value ([3]; metabolite orotidine-5'-phosphate) was -0.3294, the “Log2(fold change) oxaloacetate” value ([3]; metabolite oxaloacetate) was -0.6486 and the “Log2(fold change) p-aminobenzoate” value ([3]; metabolite p-aminobenzoate) was 0.0000. The “Log2(fold change) p-hydroxybenzoate” value ([3]; metabolite p-hydroxybenzoate) was 0.0000, the “Log2(fold change) pantothenate” value ([3]; metabolite pantothenate) was -0.1388 and the “Log2(fold change) phenylalanine” value ([3]; metabolite phenylalanine) was -0.3732. The “Log2(fold change) phenylpyruvate” value ([3]; metabolite phenylpyruvate) was 0.0000, the “Log2(fold change) phosphoenolpyruvate” value ([3]; metabolite phosphoenolpyruvate) was -0.1822 and the “Log2(fold change) prephenate” value ([3]; metabolite prephenate) was 0.5798. The “Log2(fold change) proline” value ([3]; metabolite proline) was -0.4229, the “Log2(fold change) pyridoxine” value ([3]; metabolite pyridoxine) was -0.3069 and the “Log2(fold change) pyruvate” value ([3]; metabolite pyruvate) was -1.0960. The “Log2(fold change) riboflavin” value ([3]; metabolite riboflavin) was -0.1793, the “Log2(fold change) ribose” value ([3]; metabolite ribose) was -0.0760 and the “Log2(fold change) ribose-phosphate” value ([3]; metabolite ribose-phosphate) was -0.9121. The “Log2(fold change) ribulose-5-phosphate” value ([3]; metabolite ribulose-5-phosphate) was -0.5577, the “Log2(fold change) serine” value ([3]; metabolite serine) was -0.1539 and the “Log2(fold change) sn-glycerol-3-phosphate” value ([3]; metabolite sn-glycerol-3-phosphate) was 0.0054. For the same molecule, the “Log2(fold change) succinate/Methylmalonic acid” value ([3]; metabolite succinate/Methylmalonic acid) was -0.5977, the “Log2(fold change) succinyl-CoA/methylmalonyl-CoA” value ([3]; metabolite succinyl-CoA/methylmalonyl-CoA) was 0.0000 and the “Log2(fold change) taurine” value ([3]; metabolite taurine) was -0.2559. For the same molecule, the “Log2(fold change) thiamine” value ([3]; metabolite thiamine) was -0.2060, the “Log2(fold change) threonine/homoserine” value ([3]; metabolite threonine/homoserine) was -0.2606 and the “Log2(fold change) thymidine” value ([3]; metabolite thymidine) was 0.0000. For the same molecule, the “Log2(fold changes) thymine” value ([3]; metabolite thymine, log2 fold change) was 0.0000, the “Log2(fold changes) trehalose-6-Phosphate” value ([3]; metabolite trehalose-6-Phosphate, log2 fold change) was 0.0000 and the “Log2(fold changes) tryptophan” value ([3]; metabolite tryptophan, log2 fold change) was -0.8402. The “Log2(fold changes) tyrosine” value ([3]; metabolite tyrosine, log2 fold change) was -0.1716, the “Log2(fold changes) uridine” value ([3]; metabolite uridine, log2 fold change) was 0.0000 and the “outcome of resistance selections (continuous exposure or pulsing)” value ([4]; 5 × 10^8 to 1 × 10^9 3D7-A10 or Dd2-B2 parasites, 3–6 × IC50^72h) was “did not result in MMV000787-resistant parasites”. The “minimum inocula of resistance” value ([4]; from failed selections in 3D7-A10 / Dd2-B2) was “above 5 × 10^8 parasites”.
